Results published in article PMC7215373, “Design, Synthesis, and Anticancer Evaluation of Novel Indole Derivatives of Ursolic Acid as Potential Topoisomerase II Inhibitors” (International Journal of Molecular Sciences, 2020).

Columns and labels:
HepG2 cells = test: MTT cytotoxicity assay, HepG2; assay type: cell-based, human; settings: 48 h exposure
Outline: (§1)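 Cells in DMEM with 10% FBS were seeded and allowed to attach for 24 h. They were then exposed to compound dilutions for 48 h at 37 °C, 5% CO2. Viability was measured by MTT (4 h), with formazan dissolved in DMSO and read at 570 nm.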

LO2 cells = test: MTT cytotoxicity assay, normal hepatocyte LO2; assay type: cell-based; settings: Homo sapiens, L02, 48 h exposure, normal hepatocyte cell line
Outline: as §1

DNA topoisomerase I = biological target: T1, DNA topoisomerase I (Bos taurus, UniProt F1MN93); test: Topoisomerase I relaxation assay (supercoiled pBR322); assay type: biochemical; settings: 100 μM compound; read-out: Topo I Inhibition (%) 100 μM
T1 construct: purchased TaKaRa, Kyoto, Japan
T1 sequence (F1MN93 1-767): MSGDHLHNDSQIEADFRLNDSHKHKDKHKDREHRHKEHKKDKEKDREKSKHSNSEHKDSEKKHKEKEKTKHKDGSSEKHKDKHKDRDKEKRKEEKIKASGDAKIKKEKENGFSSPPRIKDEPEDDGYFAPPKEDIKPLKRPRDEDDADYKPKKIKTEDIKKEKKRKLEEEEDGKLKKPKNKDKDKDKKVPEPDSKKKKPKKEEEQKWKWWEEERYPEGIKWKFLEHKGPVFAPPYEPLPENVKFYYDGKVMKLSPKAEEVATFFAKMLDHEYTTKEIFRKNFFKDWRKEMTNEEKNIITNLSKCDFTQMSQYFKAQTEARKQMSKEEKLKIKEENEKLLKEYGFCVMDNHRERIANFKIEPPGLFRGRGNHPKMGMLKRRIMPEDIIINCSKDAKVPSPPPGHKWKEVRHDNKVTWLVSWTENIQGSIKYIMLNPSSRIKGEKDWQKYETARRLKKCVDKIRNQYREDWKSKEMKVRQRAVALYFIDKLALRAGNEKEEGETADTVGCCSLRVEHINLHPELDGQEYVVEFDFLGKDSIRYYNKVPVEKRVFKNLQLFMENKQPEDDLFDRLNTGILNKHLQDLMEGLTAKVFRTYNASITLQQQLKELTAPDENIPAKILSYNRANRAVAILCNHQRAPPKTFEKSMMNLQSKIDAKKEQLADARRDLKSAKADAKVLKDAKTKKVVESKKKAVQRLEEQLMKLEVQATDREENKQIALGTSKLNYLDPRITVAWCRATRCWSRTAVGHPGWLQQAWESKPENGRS
Outline: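 Relaxation of supercoiled pBR322 by topoisomerase I, 30 min at 37 °C; stopped with SDS dye. Products resolved on 1% agarose in 1× TAE for 1 h, ethidium bromide-stained, with relaxed vs supercoiled DNA visualized under UV.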

Human Topoisomerase IIα = biological target: T2, Human Topoisomerase IIα (Homo sapiens, UniProt P11388); test: Topoisomerase II relaxation assay (supercoiled pBR322); assay type: biochemical
T2 construct: purchased USB, Affymetrix, Waltham, MA, USA
Outline: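 Compounds (in 2% v/v DMSO) pre-incubated 15 min with human Topo IIα and supercoiled pBR322 DNA, then reacted 30 min at 37 °C and stopped with 7 mM EDTA. Relaxed vs supercoiled DNA resolved on 1% TAE-agarose, ethidium bromide-stained and imaged. Etoposide served as positive control.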

SMMC-7721 cells = test: ROS generation assay (DCFH-DA, flow cytometry); assay type: cell-based, human; settings: 48 h, control 3.97%
Method: Reactive oxygen species (ROS), which can exert oxidative stress to cells and lead to disturbances in mitochondrial membrane potential, are important mediators for the induction of apoptosis in many cancer cells. To determine whether the apoptosis induced by compound 5f was associated with intracellular ROS level, SMMC-7721 cells treated with different concentrations of 5f were stained with the fluorescent probe DCFH-DA and analyzed by flow cytometry.
ROS generation assay was performed by using the reactive oxygen species assay kit (Beyotime Biotech., Shanghai, China). Intracellular ROS generation was tested through dichlorodihydro fluorescein diacetate (DCFH-DA) assay. DCFH-DA is taken up by SMMC-7721 cells, and then activated by esterase-mediated cleavage of acetate to form dichlorodihydro fluorescein (DCFH), which is trapped in the cells. DCFH is converted to fluorescein DCF in the presence of ROS. SMMC-7721 cells were seeded in six-well plates and incubated with different concentrations of compound 5f for 48 h. After removing the compound solution, cells were treated with 10 μM of DCFH-DA at 37 °C for 20 min. Subsequently, the cells were washed with PBS for three times and then exposed to light. Immediately after light exposure, the fluorescence intensity of dichlorofluorescein (DCF) was measured with excitation at 488 nm and emission at 525 nm by a flow cytometry (Becton-Dickinson FACSCalibur, Franklin Lakes, NJ, USA).

T2 sequence (P11388 whole entry): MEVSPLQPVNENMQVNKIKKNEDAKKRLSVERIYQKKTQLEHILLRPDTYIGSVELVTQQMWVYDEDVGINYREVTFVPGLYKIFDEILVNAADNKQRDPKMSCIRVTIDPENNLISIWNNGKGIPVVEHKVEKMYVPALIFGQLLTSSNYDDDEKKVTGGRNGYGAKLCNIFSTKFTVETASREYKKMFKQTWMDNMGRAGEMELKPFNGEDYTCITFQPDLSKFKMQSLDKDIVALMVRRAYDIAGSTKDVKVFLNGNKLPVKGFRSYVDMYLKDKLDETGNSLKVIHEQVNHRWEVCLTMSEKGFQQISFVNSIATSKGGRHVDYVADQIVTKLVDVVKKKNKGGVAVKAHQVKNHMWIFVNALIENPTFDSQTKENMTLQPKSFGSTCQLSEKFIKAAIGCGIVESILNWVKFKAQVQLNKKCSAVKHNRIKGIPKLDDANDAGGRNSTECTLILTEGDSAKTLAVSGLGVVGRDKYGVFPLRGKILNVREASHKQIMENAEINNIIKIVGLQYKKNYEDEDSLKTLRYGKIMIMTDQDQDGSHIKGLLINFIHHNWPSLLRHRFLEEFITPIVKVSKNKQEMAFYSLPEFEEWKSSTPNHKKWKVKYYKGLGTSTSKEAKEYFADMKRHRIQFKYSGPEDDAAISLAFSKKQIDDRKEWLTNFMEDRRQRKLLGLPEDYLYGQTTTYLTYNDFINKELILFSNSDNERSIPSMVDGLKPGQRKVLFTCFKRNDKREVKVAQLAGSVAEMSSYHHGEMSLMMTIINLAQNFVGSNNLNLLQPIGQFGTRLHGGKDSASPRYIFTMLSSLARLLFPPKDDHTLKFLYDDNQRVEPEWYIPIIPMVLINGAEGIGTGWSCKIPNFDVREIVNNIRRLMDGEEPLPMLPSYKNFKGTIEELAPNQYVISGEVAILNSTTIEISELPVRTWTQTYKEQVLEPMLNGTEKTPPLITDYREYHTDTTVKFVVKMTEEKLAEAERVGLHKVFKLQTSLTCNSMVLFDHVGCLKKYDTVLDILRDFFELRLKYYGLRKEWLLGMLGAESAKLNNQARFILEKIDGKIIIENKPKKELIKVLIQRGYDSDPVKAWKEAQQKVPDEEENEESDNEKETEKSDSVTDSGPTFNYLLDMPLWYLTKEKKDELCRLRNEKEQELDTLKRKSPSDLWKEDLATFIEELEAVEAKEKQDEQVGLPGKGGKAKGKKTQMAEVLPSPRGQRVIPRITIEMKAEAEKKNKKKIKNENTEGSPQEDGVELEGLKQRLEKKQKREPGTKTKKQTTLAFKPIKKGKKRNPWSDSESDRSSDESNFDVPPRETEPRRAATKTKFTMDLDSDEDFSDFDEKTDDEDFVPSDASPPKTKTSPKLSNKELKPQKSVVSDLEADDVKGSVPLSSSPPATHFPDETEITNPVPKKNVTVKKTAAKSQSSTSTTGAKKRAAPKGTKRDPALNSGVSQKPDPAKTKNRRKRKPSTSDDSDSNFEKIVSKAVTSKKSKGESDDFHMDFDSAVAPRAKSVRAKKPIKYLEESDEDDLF

inhibition at 100 µM (DNA topoisomerase I): 0% | inhibition at 20 µM (Human Topoisomerase IIα; 20 μM compound, read-out: Topo II Inhibition (%) 20 μM): 43.2% | inhibition at 100 µM (Human Topoisomerase IIα; 100 μM compound, read-out: Topo II Inhibition (%) 100 μM): 83.5%
Structure (SMILES): Cc1ccc2[nH]c3c(c2c1)C[C@@]1(C)C(CC[C@]2(C)C1CC=C1C4[C@@H](C)[C@H](C)CC[C@]4(C(=O)NCCCN4CCN(C)CC4)CC[C@]12C)C3(C)C (stereo partly drawn) [5f, N-(3-(4-Methylpiperazin-1-yl)propyl)-5′-methyl-1′H-ursa-2,12-dieno[3,2-b]indol-28-carboxamide]
IC50 (HepG2 cells): 0.91 ± 0.13 µM | IC50 (HepG2 cells; Homo sapiens, HepG2, 48 h): ~1 µM | IC50 (LO2 cells): 10.6 ± 0.52 µM | cells with elevated ROS levels (% relative ROS raised cells) (SMMC-7721 cells; 0.3 μM): 9.89% | cells with elevated ROS levels (% relative ROS raised cells) (SMMC-7721 cells; 0.6 μM): 19.84% | cells with elevated ROS levels (% relative ROS raised cells) (SMMC-7721 cells; 1.2 μM): 34.61%
